The values below come from patent US10894067B2, “Genome stability enhancer” (Yamada Bee Company, Inc., priority 2017, dated 2021).

The test has as its system H2AX expression in MEF (mouse embryo fibroblast) cells. Description: Western analysis of H2AX expression in MEF cells (Test Examples 1-3). It counts as cell-based.

Experimental: MEF (mouse embryo fibroblast) cells were cultured at 37° C. in 5% CO2 by the 3T3 method in a 10% FCS (fetal calf serum)-containing DMEM medium to which a 25 μg/ml enzymatically treated RJ or non-treated RJ was added. The cells that were cultured for 0, 3, 6, 12, and 24 hours were harvested, and Western analysis was performed using a H2AX antibody (Bethyl Laboratories, Inc.) and a β-actin antibody (AC-74, Sigma-Aldrich Co. LLC.).
In the same manner as in Test Example 1, the effects of melinjo and trans-resveratrol on H2AX expression were analyzed. In this test example, a 0.26, 0.52, 1.0, or 2.1 w/v % melinjo seed extract or trans-resveratrol was added to a medium, and cells were cultured for 1 hour and harvested.

Regarding `Oc1ccc(/C=C/c2cc(O)cc(O)c2)cc1` [trans-resveratrol], the “Induced transient H2AX expression” value runs as follows: (Test Example 2, 0.26, 0.52, 1.0 or 2.1 w/v % in medium, cultured 1 hour, FIG. 2) “Induced transient H2AX expression was observed”; (Test Example 3, 2.5 μM (0.52 μg/ml) trans-resveratrol, 0.52 μg/ml melinjo seed extract, 2.5 μM gnetin C, 0-24 hours, FIG. 3) “Induced transient H2AX expression was observed”.
